Where a name gives a salt, the structure may show the parent alone. Read-outs that look alike come from different tables or passages of the source.
Columns and labels:
adult mongrel dogs [1] = assay: acute in vivo cardiotonic activity in anesthetized dogs; parameters: species or system dog (adult mongrel); conditions: Canis lupus familiaris, cardiotonic, relative to controls; for change in vivo at 0.875 mg/kg: dose 0.875 mg/kg intravenous; for change in vivo at 1.875 mg/kg: dose 1.875 mg/kg intravenous; for change in vivo at 3.75 mg/kg: dose 3.75 mg/kg intravenous; for change in vivo at 1.87 mg/kg: dose 1.87 mg/kg intravenous; for change in vivo at 0.125 mg/kg: dose 0.125 mg/kg intravenous
Method: The acute in vivo cardiotonic activity of compounds prepared according to the present invention was determined according to a modification of the procedure described by Alousi et al., Circ. Res., 45, 666 (1979).
In particular, adult mongrel dogs were anesthetized with sodium pentobarbital and were artificially respired. Arterial pressure was monitored via a femoral artery, and the pulse pressure was used to trigger a cardiotachometer for heart rate. Left ventricular pressure was determined with a Millar catheter, and dP/dt (the change in ventricular pressure with time) was derived. Cardiac output was determined by measuring ascending aortic blood flow with an electromagnetic flow probe, and myocardial contractile force was measured with a Walton Brodie strain gauge sutured to the right ventricle. Lead II EKG was also recorded.
A standard dose (10 μg/kg/min) of dopamine was administered to assess myocardial responsiveness.
Compounds of the invention were administered by intravenous infusion or bolus […] administration, and the effects on cardiovascular parameters were determined.
Dose related effects of the test compound on blood pressure (BP), heart rate (HR), maximum change in left ventricular pressure with time (dP/dt max),% change in cardiac force (CF) and the increase in mean arterial blood pressure relative to controls (MABP) were compared to pretreatment control values, expressed as a% change and rated for activity.

adult mongrel dogs [2] = assay: renal vasodilating activity in anesthetized dogs; format: in vivo, dog (adult mongrel); conditions: Canis lupus familiaris, renal vasodilator, relative to controls; for change in vivo at 13.9 mg/kg / change in vivo at up to 13.9 mg/kg: dose 13.9 mg/kg intravenous; for change in vivo at 1.2 mg/kg: dose 1.2 mg/kg intravenous; for change in vivo at 6.2 mg/kg: dose 6.2 mg/kg intravenous
Method: Goldberg et al, J. Pharmacol. Exp. Ther., 163, 188 (1968), performed an investigation of the structural requirements for dopamine-like renal vasodilation of phenethylamines and apomorphine. The following procedure is a variation of the assay described in that report.
Adult mongrel dogs were anesthetized and surgically prepared for electromagnetic measurement of renal artery blood flow. A carotid artery was cannulated for measuring arterial blood pressure, and drugs were administered intravenously. Heart rate was monitored with a cardiotachometer. Renal vascular resistance was calculated as the ratio of mean arterial blood pressure/renal artery blood flow. Dopamine was infused intravenously at 3 μg/kg/min for ten minutes (at an infusion rate of about 1 ml/min) to determine responsiveness of each dog to renal dopamine receptor stimulation. Cumulative dose-response data were obtained by infusing a compound of this invention at progressively increasing (usually three-fold) infusion rates, each dose being infused for five minutes. The maximum % increase from pre-drug control in renal artery blood flow (or a decrease in renal vascular resistance) was determined for each infusion dose.
RBF values are percent change in renal blood flow. RVR values are percent change in renal vascular resistance. MABP and HR are percent changes in mean arterial blood pressure and heart rate, respectively, relative to controls.

[3] = read-out: MABP (mean arterial blood pressure)
[4] = read-out: dP/dt (maximum change left ventricular pressure with time)
[5] = read-out: RBF (renal blood flow)
[6] = read-out: RVR (renal vascular resistance)

Structure (SMILES) | change in vivo at 0.875 mg/kg (adult mongrel dogs [1]; read-out: CF (cardiac force)) [%] | change in vivo at 0.875 mg/kg (adult mongrel dogs [1]; read-out: HR (heart rate)) [%] | change in vivo at 0.875 mg/kg (adult mongrel dogs [1]; [3]) [%] | change in vivo at 0.875 mg/kg (adult mongrel dogs [1]; [4]) [%] | change in vivo at 1.875 mg/kg (adult mongrel dogs [1]; read-out: CF (cardiac force)) [%] | change in vivo at 1.875 mg/kg (adult mongrel dogs [1]; read-out: HR (heart rate)) [%] | change in vivo at 1.875 mg/kg (adult mongrel dogs [1]; [3]) [%] | change in vivo at 1.875 mg/kg (adult mongrel dogs [1]; [4]) [%] | change in vivo at 13.9 mg/kg (adult mongrel dogs [2]; [5]) [%] | change in vivo at up to 13.9 mg/kg (adult mongrel dogs [2]; [6]) [%] | other results
COc1cc2c(C)nc(O)c(CCC(=O)OC3CCCC3)c2cc1OC [T] | 23 | 9 | -3 | 29 | – | – | – | – | – | – | –
COc1ccc2cc(O)nc(C)c2c1OC [Compound C, 3-Hydroxy-7,8-dimethoxy-1-methylisoquinoline] | 62 | 10 | -6 | 51 | – | – | – | – | – | – | –
COc1cc2c(C)nc(O)c(CCC(=O)OC(C)C)c2cc1OC [Compound R, 4-β-Carboisopropoxyethyl-3-hydroxy-6,7-dimethoxy-1-methylisoquinoline] | – | – | – | – | 22 | 3 | -6 | 15 | – | – | –
COC(=O)CCc1c(O)nc(C(C)C)c2cc(OC)c(OC)cc12 [P] | – | – | – | – | 15 | 7 | 3 | 17 | – | – | –
Cc1nc(O)c(CCC(=O)O)c2cc(O)c(O)cc12 [Compound G, 4-β-Carboxyethyl-3,6,7-trihydroxy-1-methyl-3-isoquinoline Hydrobromide] | – | – | – | – | – | – | – | – | 11 | -14 | change in vivo at 13.9 mg/kg (adult mongrel dogs [2]; read-out: HR (heart rate)): -3%; change in vivo at 13.9 mg/kg (adult mongrel dogs [2]; [3]): -5%; change in vivo at 3.75 mg/kg (adult mongrel dogs [1]; read-out: CF (cardiac force)): 82%; change in vivo at 3.75 mg/kg (adult mongrel dogs [1]; read-out: HR (heart rate)): 13%; change in vivo at 3.75 mg/kg (adult mongrel dogs [1]; [3]): -10%; change in vivo at 3.75 mg/kg (adult mongrel dogs [1]; [4]): 32%
CCc1nc(O)c(CCC(=O)OC)c2cc(OC)c(OC)cc12 [K] | 47 | 10 | -3 | 33 | – | – | – | – | 28 | -28 | –
COc1cc2c(C)nc(O)c(C(=O)NN)c2cc1OC [AV] | – | – | – | – | – | – | – | – | – | – | change in vivo at 1.2 mg/kg (adult mongrel dogs [2]; read-out: HR (heart rate)): 1%; change in vivo at 1.2 mg/kg (adult mongrel dogs [2]; [3]): 5%; change in vivo at 1.2 mg/kg (adult mongrel dogs [2]; [5]): 22%; change in vivo at 1.2 mg/kg (adult mongrel dogs [2]; [6]): -13%; change in vivo at 1.87 mg/kg (adult mongrel dogs [1]; read-out: CF (cardiac force)): 89%; change in vivo at 1.87 mg/kg (adult mongrel dogs [1]; read-out: HR (heart rate)): 14%; change in vivo at 1.87 mg/kg (adult mongrel dogs [1]; [3]): -2%; change in vivo at 1.87 mg/kg (adult mongrel dogs [1]; [4]): 34%
COc1cc2c(C)nc(O)c(CC(C)C)c2cc1OC [AJ] | – | – | – | – | 39 | 10 | -6 | 25 | – | – | change in vivo at 6.2 mg/kg (adult mongrel dogs [2]; read-out: HR (heart rate)): 2%; change in vivo at 6.2 mg/kg (adult mongrel dogs [2]; [3]): 4%; change in vivo at 6.2 mg/kg (adult mongrel dogs [2]; [5]): 9%; change in vivo at 6.2 mg/kg (adult mongrel dogs [2]; [6]): -4%
COC(=O)C(C)Cc1c(O)nc(C)c2cc(OC)c(OC)cc12 (stereo not shown) [O] | – | – | – | – | 100 | 21 | 0 | 67 | 15 | -18 | –
COC(=O)CCc1c(O)nc(C)c2c(OC)c(OC)c(OC)cc12 [Compound J, 4-carbomethoxyethyl-3-hydroxy-6,7,8-trimethoxy-1-methylisoquinoline] | 22 | 8 | -4 | 20 | – | – | – | – | 18 | -23 | change in vivo at 13.9 mg/kg (adult mongrel dogs [2]; [3]): -1%
COc1cc2c(C)nc(O)c(CCC(=O)O)c2cc1OC [Compound E, 4-β-Carboxyethyl-3-hydroxy-6,7-dimethoxy-1-methylisoquinoline] | – | – | – | – | 75 | 5 | -3 | 42 | 7 | -13 | change in vivo at 13.9 mg/kg (adult mongrel dogs [2]; read-out: HR (heart rate)): 11%; change in vivo at 13.9 mg/kg (adult mongrel dogs [2]; [3]): -7%
CCCc1nc(O)c(CCC(=O)OC)c2cc(OC)c(OC)cc12 [M] | – | – | – | – | 17 | 2 | -4 | 19 | – | – | –
COC(=O)CCc1c(O)nc(C)c2cc3c(cc12)OCO3 [L] | 131 | 38 | -21 | 118 | – | – | – | – | – | – | –
CNC(=O)CCc1c(O)nc(C)c2cc(OC)c(OC)cc12 [X] | 40 | 4 | -5 | 24 | – | – | – | – | – | – | –
Cc1nc(O)cc2cc(O)c(O)cc12 [Compound A] | – | – | – | – | – | – | – | – | 30 | -30 | change in vivo at 13.9 mg/kg (adult mongrel dogs [2]; read-out: HR (heart rate)): 14%; change in vivo at 13.9 mg/kg (adult mongrel dogs [2]; [3]): -9%
CCOc1cc2c(C)nc(O)c(CC)c2cc1OC [AS] | – | – | – | – | – | – | – | – | – | – | change in vivo at 6.2 mg/kg (adult mongrel dogs [2]; read-out: HR (heart rate)): 2%; change in vivo at 6.2 mg/kg (adult mongrel dogs [2]; [3]): -1%; change in vivo at 6.2 mg/kg (adult mongrel dogs [2]; [5]): 9%; change in vivo at 6.2 mg/kg (adult mongrel dogs [2]; [6]): -11%; change in vivo at 0.125 mg/kg (adult mongrel dogs [1]; read-out: CF (cardiac force)): 78%; change in vivo at 0.125 mg/kg (adult mongrel dogs [1]; read-out: HR (heart rate)): 8%; change in vivo at 0.125 mg/kg (adult mongrel dogs [1]; [3]): -10%; change in vivo at 0.125 mg/kg (adult mongrel dogs [1]; [4]): 49%
CCOc1cc2cnc(O)cc2cc1OC [AQ] | – | – | – | – | – | – | – | – | – | – | change in vivo at 1.2 mg/kg (adult mongrel dogs [2]; read-out: HR (heart rate)): 16%; change in vivo at 1.2 mg/kg (adult mongrel dogs [2]; [3]): 0%; change in vivo at 1.2 mg/kg (adult mongrel dogs [2]; [5]): 13%; change in vivo at 1.2 mg/kg (adult mongrel dogs [2]; [6]): -12%
CCOc1cc2cc(O)nc(C)c2cc1OC [AW] | – | – | – | – | – | – | – | – | – | – | change in vivo at 6.2 mg/kg (adult mongrel dogs [2]; read-out: HR (heart rate)): 59%; change in vivo at 6.2 mg/kg (adult mongrel dogs [2]; [3]): -17%; change in vivo at 6.2 mg/kg (adult mongrel dogs [2]; [5]): 20%; change in vivo at 6.2 mg/kg (adult mongrel dogs [2]; [6]): -34%
COC(=O)CCc1c(O)ncc2cc3c(cc12)OCO3 [U] | – | – | – | – | 26 | 6 | 0 | 28 | – | – | –
CCOC(=O)CCc1c(O)nc(C)c2cc(OC)c(OC)cc12 [S] | 60 | 8 | -4 | 20 | – | – | – | – | – | – | –
Cc1nc(O)cc2ccc(O)c(O)c12 [Compound I] | – | – | – | – | – | – | – | – | 35 | -29 | change in vivo at 13.9 mg/kg (adult mongrel dogs [2]; read-out: HR (heart rate)): 38%; change in vivo at 13.9 mg/kg (adult mongrel dogs [2]; [3]): -4%
COc1cc(Br)c2cc(O)nc(C)c2c1OC [AU] | – | – | – | – | – | – | – | – | – | – | change in vivo at 6.2 mg/kg (adult mongrel dogs [2]; read-out: HR (heart rate)): -3%; change in vivo at 6.2 mg/kg (adult mongrel dogs [2]; [3]): 0%; change in vivo at 6.2 mg/kg (adult mongrel dogs [2]; [5]): 20%; change in vivo at 6.2 mg/kg (adult mongrel dogs [2]; [6]): -10%

Source: US4822800A (Ortho Pharmaceutical Corporation, priority 1986, dated 1989)
